Source: patent US10913744B2, “LRRK2 inhibitors and methods of making and using the same” (Dana-Farber Cancer Institute, Inc., priority 2015, dated 2021)
Where two headings read alike, the source gives them in different places.

How the values were obtained:
BTK = BTK (Homo sapiens (Human), UniProt Q06187); assay: Dundee profiling
MST4 = MST4 (Homo sapiens (Human), UniProt Q9P289); assay: Dundee profiling
MKK1 = MKK1 (Homo sapiens (Human), UniProt Q02750); assay: Dundee profiling
CHK2 = CHK2 (Homo sapiens (Human), UniProt O96017); assay: Dundee profiling
Chain of CHK2 (O96017 whole entry, species assumed): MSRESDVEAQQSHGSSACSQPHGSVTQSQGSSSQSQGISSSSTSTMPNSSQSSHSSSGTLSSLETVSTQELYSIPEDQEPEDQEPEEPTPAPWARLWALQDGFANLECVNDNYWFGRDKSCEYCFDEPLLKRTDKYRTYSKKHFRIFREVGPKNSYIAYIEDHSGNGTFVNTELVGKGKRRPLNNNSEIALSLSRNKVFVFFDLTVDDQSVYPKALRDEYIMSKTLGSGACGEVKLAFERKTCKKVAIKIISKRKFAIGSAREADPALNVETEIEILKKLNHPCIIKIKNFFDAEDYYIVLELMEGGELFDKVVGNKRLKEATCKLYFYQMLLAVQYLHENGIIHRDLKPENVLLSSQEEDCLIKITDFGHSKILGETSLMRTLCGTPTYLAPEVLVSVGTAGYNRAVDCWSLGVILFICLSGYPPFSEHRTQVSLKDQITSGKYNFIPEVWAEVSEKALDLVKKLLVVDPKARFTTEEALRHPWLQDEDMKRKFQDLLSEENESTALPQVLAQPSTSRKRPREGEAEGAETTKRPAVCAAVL

EPH-A2 = EPH-A2 (Homo sapiens (Human), UniProt P29317); assay: Dundee profiling
Chain of EPH-A2 (P29317 24-976, species assumed): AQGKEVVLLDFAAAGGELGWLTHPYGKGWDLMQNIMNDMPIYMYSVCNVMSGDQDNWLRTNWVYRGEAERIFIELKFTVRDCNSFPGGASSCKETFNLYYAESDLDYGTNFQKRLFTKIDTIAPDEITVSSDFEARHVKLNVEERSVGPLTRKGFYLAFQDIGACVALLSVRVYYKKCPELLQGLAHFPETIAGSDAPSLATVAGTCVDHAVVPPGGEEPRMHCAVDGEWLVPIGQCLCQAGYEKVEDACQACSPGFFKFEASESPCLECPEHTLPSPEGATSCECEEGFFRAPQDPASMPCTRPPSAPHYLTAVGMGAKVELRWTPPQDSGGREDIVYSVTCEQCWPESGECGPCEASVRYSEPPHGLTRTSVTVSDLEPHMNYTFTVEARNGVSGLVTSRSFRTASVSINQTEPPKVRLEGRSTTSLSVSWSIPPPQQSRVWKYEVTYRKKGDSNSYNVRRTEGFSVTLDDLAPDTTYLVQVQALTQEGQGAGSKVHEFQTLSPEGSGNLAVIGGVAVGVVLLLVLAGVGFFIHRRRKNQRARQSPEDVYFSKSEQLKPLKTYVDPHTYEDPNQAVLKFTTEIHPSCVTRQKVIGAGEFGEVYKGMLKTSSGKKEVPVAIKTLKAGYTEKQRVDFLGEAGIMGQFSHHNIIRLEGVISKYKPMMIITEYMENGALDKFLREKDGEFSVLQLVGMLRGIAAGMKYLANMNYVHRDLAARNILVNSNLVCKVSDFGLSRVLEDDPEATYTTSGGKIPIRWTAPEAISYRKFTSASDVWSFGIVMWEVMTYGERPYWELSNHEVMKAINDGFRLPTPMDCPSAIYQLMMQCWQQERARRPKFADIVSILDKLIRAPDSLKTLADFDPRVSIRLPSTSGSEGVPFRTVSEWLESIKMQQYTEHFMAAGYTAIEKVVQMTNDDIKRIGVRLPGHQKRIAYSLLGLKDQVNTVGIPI

CSK = CSK (Homo sapiens (Human), UniProt P41240); assay: KinomeScan; format: binding; settings: 1 uM
SNARK = SNARK (Homo sapiens (Human), UniProt Q9H093); assay: KinomeScan; format: binding; settings: 1 uM
LRRK2[G2019S] = LRRK2[G2019S] (Homo sapiens (Human), UniProt Q5S007, G2019S); assay: LRRK2 enzyme kinase assay, G2019S; format: biochemical; settings: Table 1; ATP at Km 112 μm
PLK2 = PLK2 (Homo sapiens (Human), UniProt Q9NYY3); assay: KinomeScan; format: binding; settings: 1 uM
MEKK1 = MEKK1 (Homo sapiens (Human), UniProt Q13233); assay: Dundee profiling
SRPK1 = SRPK1 (Homo sapiens (Human), UniProt Q96SB4); assay: Dundee profiling
Chain of SRPK1 (Q96SB4 whole entry, looked up, species assumed): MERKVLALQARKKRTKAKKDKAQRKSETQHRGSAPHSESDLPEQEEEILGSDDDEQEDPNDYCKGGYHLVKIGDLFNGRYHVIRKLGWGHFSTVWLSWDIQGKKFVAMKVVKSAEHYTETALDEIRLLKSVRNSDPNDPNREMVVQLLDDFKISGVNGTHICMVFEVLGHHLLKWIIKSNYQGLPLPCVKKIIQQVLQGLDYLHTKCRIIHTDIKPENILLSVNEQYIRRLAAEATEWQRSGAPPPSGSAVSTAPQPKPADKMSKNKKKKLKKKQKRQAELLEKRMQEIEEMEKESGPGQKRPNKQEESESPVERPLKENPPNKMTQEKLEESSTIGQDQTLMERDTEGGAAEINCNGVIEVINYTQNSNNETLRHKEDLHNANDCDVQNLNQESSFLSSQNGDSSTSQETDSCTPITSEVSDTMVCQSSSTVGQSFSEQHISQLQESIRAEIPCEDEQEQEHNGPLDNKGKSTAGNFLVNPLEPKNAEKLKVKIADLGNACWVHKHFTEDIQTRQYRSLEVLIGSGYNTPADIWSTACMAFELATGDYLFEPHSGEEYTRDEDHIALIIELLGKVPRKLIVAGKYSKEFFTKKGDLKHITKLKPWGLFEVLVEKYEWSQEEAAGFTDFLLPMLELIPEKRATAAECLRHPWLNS

DAPK1 = DAPK1 (Homo sapiens (Human), UniProt P53355); assay: Dundee profiling
Chain of DAPK1 (P53355 whole entry, species assumed): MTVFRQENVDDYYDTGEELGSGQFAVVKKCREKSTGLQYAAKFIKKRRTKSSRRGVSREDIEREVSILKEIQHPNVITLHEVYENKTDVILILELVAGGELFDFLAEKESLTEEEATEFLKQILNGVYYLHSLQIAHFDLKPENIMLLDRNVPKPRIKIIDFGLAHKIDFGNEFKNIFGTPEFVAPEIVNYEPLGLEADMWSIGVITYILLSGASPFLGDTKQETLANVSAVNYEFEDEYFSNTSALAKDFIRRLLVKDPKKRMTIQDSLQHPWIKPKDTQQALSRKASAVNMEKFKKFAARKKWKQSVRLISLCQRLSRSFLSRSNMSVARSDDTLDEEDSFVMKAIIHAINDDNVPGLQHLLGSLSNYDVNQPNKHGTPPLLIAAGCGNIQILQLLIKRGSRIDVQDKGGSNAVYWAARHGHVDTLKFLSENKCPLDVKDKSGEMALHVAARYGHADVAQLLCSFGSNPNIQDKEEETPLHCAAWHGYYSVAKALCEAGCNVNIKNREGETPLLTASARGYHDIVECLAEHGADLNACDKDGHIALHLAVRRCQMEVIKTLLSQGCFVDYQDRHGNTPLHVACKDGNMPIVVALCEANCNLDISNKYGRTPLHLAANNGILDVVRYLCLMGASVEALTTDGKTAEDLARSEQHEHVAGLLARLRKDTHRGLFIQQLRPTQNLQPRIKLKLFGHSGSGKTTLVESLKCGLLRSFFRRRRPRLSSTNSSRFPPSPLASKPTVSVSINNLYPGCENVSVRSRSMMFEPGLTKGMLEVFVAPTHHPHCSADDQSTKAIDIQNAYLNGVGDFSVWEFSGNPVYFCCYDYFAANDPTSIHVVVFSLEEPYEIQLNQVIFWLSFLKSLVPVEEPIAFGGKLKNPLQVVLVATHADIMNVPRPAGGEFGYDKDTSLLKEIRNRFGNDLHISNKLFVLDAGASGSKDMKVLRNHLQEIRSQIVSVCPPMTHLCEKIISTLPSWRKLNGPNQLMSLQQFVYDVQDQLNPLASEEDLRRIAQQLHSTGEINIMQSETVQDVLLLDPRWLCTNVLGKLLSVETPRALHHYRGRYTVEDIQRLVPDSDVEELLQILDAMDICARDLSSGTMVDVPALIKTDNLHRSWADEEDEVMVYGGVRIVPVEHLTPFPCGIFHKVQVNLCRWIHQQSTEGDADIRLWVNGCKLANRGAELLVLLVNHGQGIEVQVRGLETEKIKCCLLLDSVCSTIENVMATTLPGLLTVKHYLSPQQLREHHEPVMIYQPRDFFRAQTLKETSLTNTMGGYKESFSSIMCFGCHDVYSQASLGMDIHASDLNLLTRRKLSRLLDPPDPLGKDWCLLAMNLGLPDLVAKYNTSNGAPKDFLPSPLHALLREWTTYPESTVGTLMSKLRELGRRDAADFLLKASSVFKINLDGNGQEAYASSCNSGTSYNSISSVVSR

ASK1 = ASK1 (Homo sapiens (Human), UniProt Q99683); assay: Dundee profiling
MARK3 = MARK3 (Homo sapiens (Human), UniProt P27448); assay: Dundee profiling
BRK = BRK (Homo sapiens (Human), UniProt Q13882); assay: Dundee profiling
Chain of BRK (Q13882 whole entry, looked up, species assumed): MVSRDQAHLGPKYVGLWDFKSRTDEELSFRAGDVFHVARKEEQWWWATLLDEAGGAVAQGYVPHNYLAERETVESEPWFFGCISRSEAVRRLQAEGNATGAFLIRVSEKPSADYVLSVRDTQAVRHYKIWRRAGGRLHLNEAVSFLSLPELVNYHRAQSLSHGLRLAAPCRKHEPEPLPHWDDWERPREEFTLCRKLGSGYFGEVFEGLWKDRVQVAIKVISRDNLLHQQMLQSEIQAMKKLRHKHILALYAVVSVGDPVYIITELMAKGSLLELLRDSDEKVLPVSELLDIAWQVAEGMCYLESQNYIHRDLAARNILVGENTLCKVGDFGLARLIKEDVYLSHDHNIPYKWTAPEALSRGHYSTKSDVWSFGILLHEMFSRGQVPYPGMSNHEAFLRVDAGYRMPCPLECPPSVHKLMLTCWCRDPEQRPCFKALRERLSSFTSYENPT

IRAK4 = IRAK4 (Homo sapiens (Human), UniProt Q9NWZ3); assay: KinomeScan; format: binding; settings: 1 uM
PAK6 = PAK6 (Homo sapiens (Human), UniProt Q9NQU5); assay: Dundee profiling
TAK1 = TAK1 (Homo sapiens (Human), UniProt O43318); assay: Dundee profiling
ROCK2 = ROCK2 (Homo sapiens (Human), UniProt O75116); assay: Dundee profiling
SYK = SYK (Homo sapiens (Human), UniProt P43405); assay: KinomeScan; format: binding; settings: 1 uM
CSNK1G1 = CSNK1G1 (Homo sapiens (Human), UniProt Q9HCP0); assay: KinomeScan; format: binding; settings: 1 uM
ABL = ABL (Homo sapiens (Human), UniProt P00519); assay: Dundee profiling
TSSK1 = TSSK1 (Homo sapiens (Human), UniProt Q9BXA7); assay: Dundee profiling
ZAP70 = ZAP70 (Homo sapiens (Human), UniProt P43403); assay: Dundee profiling
ERK8 = ERK8 (Homo sapiens (Human), UniProt Q8TD08); assay: Dundee profiling
EPHB2 = EPHB2 (Homo sapiens (Human), UniProt P29323); assay: Dundee profiling
Chain of EPHB2 (P29323 19-1055, species assumed): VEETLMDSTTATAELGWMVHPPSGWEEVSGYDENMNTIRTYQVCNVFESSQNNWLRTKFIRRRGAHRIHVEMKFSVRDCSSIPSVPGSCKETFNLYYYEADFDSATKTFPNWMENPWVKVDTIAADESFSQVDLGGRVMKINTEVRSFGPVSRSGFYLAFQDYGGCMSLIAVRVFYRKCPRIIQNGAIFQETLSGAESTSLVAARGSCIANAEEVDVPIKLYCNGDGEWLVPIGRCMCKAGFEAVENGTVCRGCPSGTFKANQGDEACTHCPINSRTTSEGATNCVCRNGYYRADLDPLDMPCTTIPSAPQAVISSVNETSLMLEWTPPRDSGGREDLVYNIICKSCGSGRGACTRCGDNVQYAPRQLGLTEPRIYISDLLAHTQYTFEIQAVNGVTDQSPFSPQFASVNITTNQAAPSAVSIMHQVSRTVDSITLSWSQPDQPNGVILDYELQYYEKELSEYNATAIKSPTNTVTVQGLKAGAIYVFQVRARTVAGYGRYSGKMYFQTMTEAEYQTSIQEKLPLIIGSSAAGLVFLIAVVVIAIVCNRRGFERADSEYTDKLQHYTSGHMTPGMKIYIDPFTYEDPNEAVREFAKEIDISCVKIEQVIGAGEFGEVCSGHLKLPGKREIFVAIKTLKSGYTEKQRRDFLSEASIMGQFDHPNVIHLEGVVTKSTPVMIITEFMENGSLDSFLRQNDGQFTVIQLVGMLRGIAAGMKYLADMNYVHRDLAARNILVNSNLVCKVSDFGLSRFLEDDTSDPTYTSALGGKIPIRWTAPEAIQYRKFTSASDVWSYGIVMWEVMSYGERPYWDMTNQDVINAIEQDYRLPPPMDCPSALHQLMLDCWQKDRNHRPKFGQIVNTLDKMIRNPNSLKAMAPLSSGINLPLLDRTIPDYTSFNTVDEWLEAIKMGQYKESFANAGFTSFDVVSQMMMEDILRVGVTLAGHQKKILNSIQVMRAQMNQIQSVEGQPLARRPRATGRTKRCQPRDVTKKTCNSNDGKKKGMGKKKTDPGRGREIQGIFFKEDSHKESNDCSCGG

[1] = read-out: percent remaining enzymatic activity
[2] = read-out: percent remaining enzymatic activity, I1, 1 μM
[3] = read-out: percent remaining enzymatic activity, I10

CNc1nc(Nc2ccc(C(=O)N3CCOCC3)cc2OC)nc2[nH]cc(Cl)c12 [Compound 18, (4-((5-chloro-4-(methylamino)-7H-pyrrolo[2,3-d]pyrimidin-2-yl)amino)-3-methoxyphenyl)(morpholino)methanone] was tested, and the “percent remaining enzymatic activity” value (BTK; I10) was 126%, the remaining activity at 1 µM (BTK; [1]) was 116% and the remaining activity at 1 µM (MST4; [2]) was 103%. It also gave a remaining activity at 1 µM (MST4; [3]) of 97%, a remaining activity at 1 µM (MKK1; [2]) of 91% and a remaining activity at 1 µM (MKK1; [3]) of 56%. For the same compound, the IC50 (CHK2) was 0.0276 µM, the inhibition at 1 µM (CHK2; read-out: inhibition of kinase activity of the DMSO control) was > 90% and the remaining activity at 1 µM (CHK2; [2]) was 5%. It also gave a remaining activity at 1 µM (CHK2; [3]) of 1%, a remaining activity at 1 µM (EPH-A2; [2]) of 104% and a remaining activity at 1 µM (EPH-A2; [3]) of 101%. For the same compound, the KinomeScan value (CSK) was 100, the KinomeScan value (SNARK) was 100 and the IC50 (LRRK2[G2019S]) was 0.0022 µM. The KinomeScan value (PLK2) was 100, the remaining activity at 1 µM (MEKK1; [2]) was 94% and the remaining activity at 1 µM (MEKK1; [3]) was 85%. It also gave a remaining activity at 1 µM (SRPK1; [2]) of 89%, a remaining activity at 1 µM (SRPK1; [3]) of 31% and a remaining activity at 1 µM (DAPK1; [2]) of 21%. It also gave a remaining activity at 1 µM (DAPK1; [3]) of 5%, a remaining activity at 1 µM (ASK1; [2]) of 56% and a remaining activity at 1 µM (ASK1; [3]) of 10%. The remaining activity at 1 µM (MARK3; [2]) was 120%, the remaining activity at 1 µM (MARK3; [3]) was 92% and the remaining activity at 1 µM (BRK; [2]) was 62%. For the same compound, the remaining activity at 1 µM (BRK; [3]) was 19%, the KinomeScan value (IRAK4) was 100 and the remaining activity at 1 µM (PAK6; [2]) was 102%. The remaining activity at 1 µM (PAK6; [3]) was 105%, the remaining activity at 1 µM (TAK1; [2]) was 96% and the remaining activity at 1 µM (TAK1; [3]) was 42%. For the same compound, the remaining activity at 1 µM (ROCK2; [2]) was 113%, the remaining activity at 1 µM (ROCK2; [3]) was 101% and the KinomeScan value (SYK) was 80. The KinomeScan value (CSNK1G1) was 97, the remaining activity at 1 µM (ABL; [2]) was 106% and the remaining activity at 1 µM (ABL; [3]) was 103%. For the same compound, the remaining activity at 1 µM (TSSK1; [2]) was 14%, the remaining activity at 1 µM (TSSK1; [3]) was 7% and the remaining activity at 1 µM (ZAP70; [2]) was 101%. The remaining activity at 1 µM (ZAP70; [3]) was 85%, the remaining activity at 1 µM (ERK8; [2]) was 108% and the remaining activity at 1 µM (ERK8; [3]) was 71%. The “percent remaining enzymatic activity” value (EPHB2; I10) was 58% and the remaining activity at 1 µM (EPHB2; [1]) was 60%.
